In patent US9296725B2, “Heterocyclyl pyrimidine analogues as TYK2 inhibitors” (Cellzome Limited, priority 2012, dated 2016) one finds IC50 data, which are given here for 58 compounds.

Molecules are shown by their SMILES.

One test has as its target T1, JAK2 (Homo sapiens, UniProt O60674).
T1 construct: endogenous in cells; host or cells: Molt4 (ATCC CRL-1582) and Ramos (ATCC CRL-1596), mixed lysate 1:2
The experiment in a line: Kinobeads assay, JAK2 (competition binding in mixed Molt4/Ramos cell lysate, dot blot detection). To be noted: read-out: JAK2 Band (Kinobeads assay potency, IC50). The method in brief:
(§1)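 Competition binding: compound dilutions (1:3 series, 9 steps) plus immobilized aminopyrido-pyrimidine beads incubated 3 h in the cold with mixed Molt4/Ramos lysate (1:2) at 10 mg/mL protein. Bead-bound JAK2/TYK2 eluted and quantified by antibody dot blot with infrared detection; IC50 from dose-response curves.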

A further test deals with T2, TYK2 (Homo sapiens, UniProt P29597).
T2 construct: endogenous in cells; host or cells: Molt4 (ATCC CRL-1582) and Ramos (ATCC CRL-1596), mixed lysate 1:2
Nature of the test: Kinobeads assay, TYK2 (competition binding in mixed Molt4/Ramos cell lysate, dot blot detection). To be noted: Kinobeads assay, Molt4/Ramos lysate; read-out: TYK2 Band (Kinobeads assay potency, IC50). The method in brief:
as §1

The term IC50 denotes the concentration at which inhibition is half-maximal.

T2 sequence (P29597 whole entry): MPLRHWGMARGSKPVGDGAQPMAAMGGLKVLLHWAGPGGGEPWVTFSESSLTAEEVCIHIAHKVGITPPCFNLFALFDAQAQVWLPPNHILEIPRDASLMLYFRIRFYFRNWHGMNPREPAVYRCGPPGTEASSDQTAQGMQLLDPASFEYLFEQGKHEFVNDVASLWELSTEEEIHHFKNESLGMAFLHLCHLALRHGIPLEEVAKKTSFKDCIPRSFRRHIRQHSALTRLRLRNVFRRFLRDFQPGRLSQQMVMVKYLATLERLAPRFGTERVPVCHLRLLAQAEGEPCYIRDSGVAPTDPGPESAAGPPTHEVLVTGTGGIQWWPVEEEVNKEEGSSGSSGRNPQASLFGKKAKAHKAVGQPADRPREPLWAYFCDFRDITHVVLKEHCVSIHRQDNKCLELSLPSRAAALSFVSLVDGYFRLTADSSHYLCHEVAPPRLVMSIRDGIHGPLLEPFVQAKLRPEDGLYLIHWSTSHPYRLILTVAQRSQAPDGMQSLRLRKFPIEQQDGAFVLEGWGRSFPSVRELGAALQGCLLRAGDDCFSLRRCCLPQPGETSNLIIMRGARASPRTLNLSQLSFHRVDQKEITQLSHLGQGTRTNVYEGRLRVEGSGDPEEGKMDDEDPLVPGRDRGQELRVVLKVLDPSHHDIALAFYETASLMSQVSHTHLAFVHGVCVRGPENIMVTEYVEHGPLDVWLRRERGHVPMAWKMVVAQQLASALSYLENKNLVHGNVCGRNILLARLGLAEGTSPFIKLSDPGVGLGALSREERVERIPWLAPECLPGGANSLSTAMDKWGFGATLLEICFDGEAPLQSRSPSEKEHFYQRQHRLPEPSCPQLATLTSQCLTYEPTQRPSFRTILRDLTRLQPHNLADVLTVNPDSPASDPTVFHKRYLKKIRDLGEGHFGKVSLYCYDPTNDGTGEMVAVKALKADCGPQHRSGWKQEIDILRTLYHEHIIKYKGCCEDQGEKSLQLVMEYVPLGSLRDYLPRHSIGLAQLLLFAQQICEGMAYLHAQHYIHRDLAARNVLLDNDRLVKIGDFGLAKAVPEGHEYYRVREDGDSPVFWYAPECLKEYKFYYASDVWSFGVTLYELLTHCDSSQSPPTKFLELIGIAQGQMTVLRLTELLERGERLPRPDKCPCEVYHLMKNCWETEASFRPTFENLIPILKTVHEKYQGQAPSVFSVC
T1 sequence (O60674 whole entry): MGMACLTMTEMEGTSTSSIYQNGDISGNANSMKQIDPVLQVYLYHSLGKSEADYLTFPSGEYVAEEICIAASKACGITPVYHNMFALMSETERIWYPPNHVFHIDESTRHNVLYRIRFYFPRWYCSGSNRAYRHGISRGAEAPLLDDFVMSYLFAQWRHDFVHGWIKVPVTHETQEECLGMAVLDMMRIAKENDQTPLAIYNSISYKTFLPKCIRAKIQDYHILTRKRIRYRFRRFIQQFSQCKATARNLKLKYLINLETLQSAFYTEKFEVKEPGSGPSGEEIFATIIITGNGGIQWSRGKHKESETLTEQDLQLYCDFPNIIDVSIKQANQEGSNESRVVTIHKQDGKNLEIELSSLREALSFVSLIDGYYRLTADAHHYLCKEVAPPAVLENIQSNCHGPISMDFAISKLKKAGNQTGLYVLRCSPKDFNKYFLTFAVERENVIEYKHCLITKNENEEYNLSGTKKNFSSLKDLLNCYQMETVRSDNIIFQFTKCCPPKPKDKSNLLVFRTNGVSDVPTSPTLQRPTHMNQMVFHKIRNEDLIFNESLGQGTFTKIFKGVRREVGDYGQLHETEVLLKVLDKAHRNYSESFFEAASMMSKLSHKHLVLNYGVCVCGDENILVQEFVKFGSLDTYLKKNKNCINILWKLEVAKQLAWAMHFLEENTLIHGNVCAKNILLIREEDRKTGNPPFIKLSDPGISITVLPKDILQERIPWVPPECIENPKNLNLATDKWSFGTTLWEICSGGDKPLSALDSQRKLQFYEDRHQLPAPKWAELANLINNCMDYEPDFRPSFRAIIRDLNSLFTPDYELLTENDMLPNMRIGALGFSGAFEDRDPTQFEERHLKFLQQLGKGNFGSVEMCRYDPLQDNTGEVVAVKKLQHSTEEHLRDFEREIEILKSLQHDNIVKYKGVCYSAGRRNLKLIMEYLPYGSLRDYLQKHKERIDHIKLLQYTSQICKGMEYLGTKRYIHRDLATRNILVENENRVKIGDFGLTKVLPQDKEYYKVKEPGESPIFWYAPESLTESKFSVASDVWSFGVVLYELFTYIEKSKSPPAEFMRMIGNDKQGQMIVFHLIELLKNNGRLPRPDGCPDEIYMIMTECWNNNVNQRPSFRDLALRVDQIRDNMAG

As for `OCCn1cc(Nc2ncc(Cl)c(NCc3ccc(C(F)(F)F)cc3F)n2)cn1` [Example I-245], the IC50 at JAK2 lay in the range of 10 to 100 nM; at TYK2, 1000 to 10000 nM.
The matching figures for `OCCn1cc(Nc2ncc(Cl)c(NCc3ccccn3)n2)cn1` [Example I-247]: 100 to 1000 nM and 1000 to 10000 nM.
For the compound `Cn1ccnc1Cn1cc(Nc2ncc(Cl)c(NCc3ccccc3)n2)cn1` [Example I-248], the concentration for half-maximal inhibition (IC50) on JAK2 fell in the range of 1000 to 10000 nM; at TYK2, 100 to 1000 nM.
The matching figures for `Clc1cnc(Nc2cnn(Cc3ncco3)c2)nc1NCc1ccccc1` [Example I-249]: 1000 to 10000 nM and 1000 to 10000 nM.
The matching figures for `Cn1ncnc1Cn1cc(Nc2ncc(Cl)c(NCc3ccccc3)n2)cn1` [Example I-250]: 1000 to 10000 nM and 1000 to 10000 nM.
The matching figures for `CN(C)C(=O)Cn1cc(Nc2ncc(F)c(NCc3c(Cl)cccc3Cl)n2)cn1` [Example I-251]: 1000 to 10000 nM and 10 to 100 nM.
Regarding `O=C(Cn1cc(Nc2ncc(F)c(NCc3c(F)cc(F)cc3F)n2)cn1)NCC(F)(F)F` [Example I-252], the figures for the concentration for half-maximal inhibition (IC50) on JAK2 and on TYK2 were > 10000 nM and 10 to 100 nM, respectively.
`CN1CCC(n2cc(Nc3ncc(Cl)c(NCc4ccccc4)n3)cn2)C1=O` (centres unmarked) [Example I-253]: the IC50 on JAK2 and at TYK2 was 100 to 1000 nM throughout.
With `CS(=O)(=O)Cn1cc(Nc2ncc(Cl)c(NCc3ccccc3)n2)cn1` [Example I-254], the figures for the IC50 on JAK2 and at TYK2 were 1000 to 10000 nM and 100 to 1000 nM, respectively.
The matching figures for `OCCn1cc(Nc2ncc(Cl)c(NCc3cccnc3)n2)cn1` [Example I-255]: 1000 to 10000 nM and 100 to 1000 nM.
Regarding `C[C@@H](O)Cn1cc(Nc2ncc(Cl)c(NCc3ccccc3F)n2)cn1` [Example I-256], the figures for the concentration for half-maximal inhibition (IC50) at JAK2 and at TYK2 were 1000 to 10000 nM and 100 to 1000 nM, respectively.
The matching figures for `C[C@H](O)Cn1cc(Nc2ncc(Cl)c(NCc3ccccc3F)n2)cn1` [Example I-257]: 100 to 1000 nM and 100 to 1000 nM.
The matching figures for `Cn1cc(Nc2ncc(Cl)c(NCc3cncc(F)c3)n2)cn1` [Example I-258]: 100 to 1000 nM and 100 to 1000 nM.
The matching figures for `OCCn1cc(Nc2ncc(Cl)c(NCc3ncccc3F)n2)cn1` [Example I-259]: 1000 to 10000 nM and 10 to 100 nM.
On to `Cn1cc(Nc2ncc(Cl)c(NCc3ncccc3F)n2)cn1` [Example I-260], for which the IC50 was in the range of 1000 to 10000 nM at JAK2 and 100 to 1000 nM on TYK2.
Regarding `NC(=O)Cn1cc(Nc2ncc(Cl)c(NCc3cc(Br)cc(F)c3F)n2)cn1` [Example I-261], the IC50 on JAK2 and on TYK2 was 100 to 1000 nM throughout.
Turning to `CNC(=O)Cn1cc(Nc2ncc(Cl)c(NCc3cc(Br)cc(F)c3F)n2)cn1` [Example I-262], the IC50 at JAK2 and on TYK2 was 100 to 1000 nM throughout.
Regarding `CN(C)C(=O)Cn1cc(Nc2ncc(Cl)c(NCc3cc(Br)cc(F)c3F)n2)cn1` [Example I-263], the half-maximal inhibitory concentration (IC50) on JAK2 and on TYK2 was 100 to 1000 nM throughout.
As for `OCCn1cc(Nc2ncc(Cl)c(NCc3cc(Br)cc(F)c3F)n2)cn1` [Example I-264], the IC50 on JAK2 and on TYK2 was 100 to 1000 nM each time.
On to `OCCn1cc(Nc2ncc(Cl)c(NCc3c(F)cccc3-c3cn[nH]c3)n2)cn1` [Example I-265], for which the 50% inhibitory concentration (IC50) on JAK2 was in the range of 1000 to 10000 nM; at TYK2, 100 to 1000 nM.
The matching figures for `CS(=O)(=O)c1ccccc1CNc1nc(Nc2cnn(CCO)c2)ncc1Cl` [Example I-266]: 1000 to 10000 nM and 100 to 1000 nM.
Take `CCOc1ccc(F)c(CNc2nc(Nc3cnn(CC(N)=O)c3)ncc2Cl)c1F` [Example I-267]: the half-inhibitory concentration (IC50) at JAK2 is 100 to 1000 nM; at TYK2 it was 10 to 100 nM.
The matching figures for `CCOc1ccc(F)c(CNc2nc(Nc3cnn(CC(=O)N(C)C)c3)ncc2Cl)c1F` [Example I-268]: 1000 to 10000 nM and 10 to 100 nM.
The matching figures for `CCOc1ccc(F)c(CNc2nc(Nc3cnn(CC(=O)NC)c3)ncc2Cl)c1F` [Example I-269]: 1000 to 10000 nM and 10 to 100 nM.
On to `N#C[C@H]1CCN(C(=O)Cn2cc(Nc3ncc(Cl)c(NCc4ccccc4)n3)cn2)C1` [Example I-270], for which the IC50 at JAK2 was in the range of 1000 to 10000 nM; on TYK2 it was 10 to 100 nM.
In the case of `N#C[C@@H]1CCN(C(=O)Cn2cc(Nc3ncc(Cl)c(NCc4ccccc4)n3)cn2)C1` [Example I-271], the half-maximal inhibitory concentration (IC50) on JAK2 was in the range of 100 to 1000 nM; on TYK2, 10 to 100 nM.
The matching figures for `N#C[C@@H]1CCCN1C(=O)Cn1cc(Nc2ncc(Cl)c(NCc3ccccc3)n2)cn1` [Example I-272]: 1000 to 10000 nM and 100 to 1000 nM.
In the case of `COCCNC(=O)Cn1cc(Nc2ncc(Cl)c(NCc3ccccc3)n2)cn1` [Example I-273], the IC50 at JAK2 fell in the range of 1000 to 10000 nM; at TYK2, 100 to 1000 nM.
As to `N#CC1CN(C(=O)Cn2cc(Nc3ncc(Cl)c(NCc4ccccc4)n3)cn2)C1` [Example I-274], the IC50 on JAK2 was in the range of 1000 to 10000 nM; on TYK2, 10 to 100 nM.
The matching figures for `O=C(O)Cn1cc(Nc2ncc(Cl)c(NCc3cc(F)cc(C(F)(F)F)c3)n2)cn1` [Example I-275]: 1000 to 10000 nM and 100 to 1000 nM.
The matching figures for `COc1c(F)cc(F)cc1CNc1nc(Nc2cnn(C)c2)ncc1Cl` [Example I-276]: 10 to 100 nM and 100 to 1000 nM.
The matching figures for `Cn1cc(Nc2ncc(Cl)c(NCc3cc(C(F)(F)F)ccc3F)n2)cn1` [Example I-277]: 1000 to 10000 nM and 100 to 1000 nM.
On to `Cn1cc(Nc2ncc(Cl)c(NCc3cc(C(F)(F)F)ccc3Cl)n2)cn1` [Example I-278], for which the IC50 at JAK2 lay in the range of 1000 to 10000 nM; at TYK2, 100 to 1000 nM.
As to `CNC(=O)Cn1cc(Nc2ncc(Cl)c(NCc3cc(C(F)(F)F)ccc3F)n2)cn1` [Example I-279], the half-inhibitory concentration (IC50) at JAK2 fell in the range of 100 to 1000 nM; at TYK2 it was 10 to 100 nM.
Consider `CNC(=O)Cn1cc(Nc2ncc(Cl)c(NCc3cc(C(F)(F)F)ccc3Cl)n2)cn1` [Example I-280], for which the IC50 on JAK2 was 100 to 1000 nM; on TYK2 it was 10 to 100 nM.
The matching figures for `OCCn1cc(Nc2ncc(Cl)c(NCc3cc(C(F)(F)F)ccc3F)n2)cn1` [Example I-281]: 100 to 1000 nM and 10 to 100 nM.
With `Cc1ccc(F)c(CNc2nc(Nc3cnn(CC(N)=O)c3)ncc2Cl)c1F` [Example I-282], the 50% inhibitory concentration (IC50) fell in the range of 1000 to 10000 nM at JAK2 and 10 to 100 nM at TYK2.
Take `Cc1ccc(F)c(CNc2nc(Nc3cnn(CC(=O)N(C)C)c3)ncc2Cl)c1F` [Example I-283]: the 50% inhibitory concentration (IC50) at JAK2 is 1000 to 10000 nM; at TYK2, 10 to 100 nM.
The matching figures for `CNC(=O)Cn1cc(Nc2ncc(Cl)c(NCc3c(F)ccc(C)c3F)n2)cn1` [Example I-284]: 1000 to 10000 nM and 10 to 100 nM.
The matching figures for `CC(C(N)=O)n1cc(Nc2ncc(Cl)c(NCc3ccccc3)n2)cn1` (centres unmarked) [Example I-285]: 1000 to 10000 nM and 100 to 1000 nM.
The matching figures for `N#Cc1c(F)cccc1CNc1nc(Nc2cnn(CC(N)=O)c2)ncc1Cl` [Example I-286]: 100 to 1000 nM and 100 to 1000 nM.
On to `N#Cc1c(F)cccc1CNc1nc(Nc2cnn(CCO)c2)ncc1Cl` [Example I-287], for which the IC50 at JAK2 and on TYK2 was 100 to 1000 nM throughout.
In the case of `NC(=O)Cn1cc(Nc2ncc(Cl)c(NCc3ccccc3CO)n2)cn1` [Example I-288], the IC50 on JAK2 lay within 1000 to 10000 nM; at TYK2, 100 to 1000 nM.
The matching figures for `CS(=O)(=O)CCn1cc(Nc2ncc(Cl)c(NCc3ccccc3)n2)cn1` [Example I-289]: 1000 to 10000 nM and 1000 to 10000 nM.
Take `C[C@H](C(N)=O)n1cc(Nc2ncc(Cl)c(NCc3ccccc3)n2)cn1` [Example I-290]: the concentration for half-maximal inhibition (IC50) at JAK2 fell in the range of 1000 to 10000 nM; at TYK2 it was 100 to 1000 nM.
As for `C[C@@H](C(N)=O)n1cc(Nc2ncc(Cl)c(NCc3ccccc3)n2)cn1` [Example I-291], the values for the concentration for half-maximal inhibition (IC50) on JAK2 and at TYK2 were 1000 to 10000 nM and 100 to 1000 nM, respectively.
For `CC(C)(O)Cn1cc(Nc2ncc(Cl)c(NCc3cc(F)ccc3F)n2)cn1` [Example I-292], the 50% inhibitory concentration (IC50) at JAK2 and on TYK2 was 100 to 1000 nM each time.
In the case of `OCCn1cc(Nc2ncc(Cl)c(NCc3cccc(C(F)F)c3)n2)cn1` [Example I-293], the concentration for half-maximal inhibition (IC50) on JAK2 and at TYK2 was 100 to 1000 nM in each case.
As for `CCOc1cccc(CNc2nc(Nc3cnn(CCO)c3)ncc2Cl)c1` [Example I-294], the IC50 on JAK2 is 1000 to 10000 nM; on TYK2 it was 100 to 1000 nM.
The matching figures for `COc1ccc(F)c(CNc2nc(Nc3cnn(CC(=O)O)c3)ncc2Cl)c1F` [Example I-295]: 1000 to 10000 nM and 10 to 100 nM.
The matching figures for `Cc1cnc(Nc2cnn(CC(=O)N3CCOCC3)c2)nc1NCc1ccccc1` [Example I-296]: 1000 to 10000 nM and 10 to 100 nM.
The matching figures for `Cc1cnc(Nc2cnn(CCO)c2)nc1NCc1c(F)cccc1F` [Example I-298]: 100 to 1000 nM and ≤ 10 nM.
In the case of `Cc1cnc(Nc2cnn(CC(=O)N(C)C)c2)nc1NCc1c(F)cccc1F` [Example I-299], the values for the IC50 on JAK2 and at TYK2 were 100 to 1000 nM and ≤ 10 nM, respectively.
Consider `Cc1cnc(Nc2cnn(CC(=O)N(C)C)c2)nc1NCc1ccccc1` [Example I-300], for which the results for the IC50 on JAK2 and at TYK2 were 1000 to 10000 nM and 100 to 1000 nM, respectively.
The matching figures for `Cc1cnc(Nc2cnn(C)c2)nc1NCc1c(F)cc(F)cc1F` [Example I-301]: 1000 to 10000 nM and 10 to 100 nM.
The matching figures for `COc1ccc(F)c(CNc2nc(Nc3cnn(C)c3)ncc2C)c1F` [Example I-302]: 100 to 1000 nM and 10 to 100 nM.
With `Cc1cnc(Nc2cnn(CCO)c2)nc1NCc1c(F)cc(F)cc1F` [Example I-303], the 50% inhibitory concentration (IC50) at JAK2 is 100 to 1000 nM; on TYK2 it was 10 to 100 nM.
The matching figures for `COc1ccc(F)c(CNc2nc(Nc3cnn(CCO)c3)ncc2C)c1F` [Example I-304]: 10 to 100 nM and ≤ 10 nM.
